Experimental data taken from patent publication US20240418701A1, “SINGLE MOLECULE IDEN[…] A REACTIVE HETERO-NANOPORE” (priority 2021, published 2024).
Like-named read-outs stand apart in the source and are kept apart here.

Assays:
[1] = target: M2 MspA (Mycolicibacterium smegmatis, UniProt A0QR29, D117N/D118N/D120N/D145R/D161R/E166K); experiment: NMP sensing performed with M2 MspA (control without PBA); type: binding, Mycobacterium smegmatis; conditions: NMP 1 mM in cis, +200 mV
Experimental: FIG. 44: NMP sensing performed with M2 MspA. (a-d) Representative traces of (a) CMP, (b) UMP, (c) AMP, (d) GMP sensing performed with M2 MspA. All measurements were carried out as described in Methods in Example 2 in a 1.5 M KCl buffer (1.5 M KCl, 10 mM MOPS, pH 7.0). A +200 mV bias was continually applied. NMPs were added to cis with a final concentration of 1 mM for each analyte.
(§1) NMPs consist of a ribose, a phosphate group and a nucleobase, serving as monomeric units of RNA. […] Experimentally, single channel recording was performed using MspA-PBA in a 1.5 M KCl buffer (1.5 M KCl, 10 mM MOPS, pH 7.0) (Methods in Example 2). A transmembrane potential of +200 mV was continually applied. Four canonical NMPs, adenine mononucleotide (AMP), guanine mononucleotide (GMP), cytosine mononucleotide (CMP) and uracil mononucleotide (UMP) were tested as analytes (FIG. 33d). Either type of NMP was added to cis at a final concentration of 300 μM. Subsequently, successive resistive pulses caused by either type of NMP were immediately observed (FIG. 33d). However, no events were observed when M2 MspA was tested, confirming that the PBA located at the pore constriction is critical in the generation of NMP sensing events (FIG. 44). At this condition, ˜1800 events/h were obtained from each pore. The pore could normally withstand a few hours of continuous measurement. Deoxyribonucleoside monophosphate (dNMP) fails to report any event when sensed by MspA-PBA (FIG. 45). This is expected because dNMPs have no cis-diol structure and can't form the boronate ester which is necessary for sensing. The molecular mechanism of sensing which results from reversible covalent bond formation between an NMP and the PBA at the pore constriction is thus confirmed.

[2] = target: T1, MspA-PBA (phenylboronic acid modified hetero-octameric (N90C)1(M2)7 MspA) (Mycolicibacterium smegmatis, UniProt A0QR29, D117C/D118N/D120N/D145R/D161R/E166K); type: binding, Mycobacterium smegmatis
T1 construct: H6 (hexa-histidine) (C); 3-(maleimide) phenylboronic acid (MPBA) adduct on the thiol of Cys90; made in house; host or cells: E. coli BL21 (DE3) pLysS, co-expression from pETDuet-1
Experimental: FIG. 46: Definition of event parameters. […] The measurement was carried out as described in Methods in Example 2. The chambers were filled with a 1.5 M KCl buffer (1.5 M KCl, 10 mM MOPS, pH 7.0). A transmembrane potential of +200 mV was continually applied. AMP was added to cis with a final concentration of 300 μM. The open pore current (Ip), the residual current (Ib), the dwell time (τoff) and the inter-event duration (τon) are defined as marked on the trace. The percentage blockage (% Ib) is defined as (Ip−Ib)/Ip. The noise amplitude (S.D.) is defined as the standard deviation of the blockage level.
as §1
To describe NMP sensing events quantitatively, the event dwell time (τoff), the inter-event interval (τon), the percentage blockage (% Ib=(Ip−Ib)/Ip) and the noise amplitude (S.D.) were derived as described in FIG. 46. Generally, the histograms of τoff and τon show an exponential distribution, and could be fitted to derive the mean time constants τoff or τon, respectively. The histograms of % Ib and S.D. show a Gaussian distribution, which could be fitted to derive the mean percentage blockage % Ib and S.D., respectively. During NMP sensing, by varying the NMP concentrations in cis, the reciprocal of dwell time (1/τoff) remains constant, consistent with a unimolecular dissociation mechanism. Whereas the reciprocal of the inter-event interval (1/τon) linearly correlates with the NMP concentration in cis (Tables 8-11, FIG. 47-50), consistent with a bimolecular model. The dependence of the applied voltage during NMP sensing was investigated using AMP as a representative analyte. […] This is expected because in a pH 7.0 buffer, the phosphate group of NMP is negatively charged and the electrophoretic force applied on the NMP analyte can strongly regulate the rate of event appearance and the event dwell time.

[3] = target: T2, MspA-PBA (boronic acid appended hetero-octameric MspA) (Mycolicibacterium smegmatis, UniProt A0QR29, D117C/D118N/D120N/D145R/D161R/E166K); experiment: Single channel recording of alditol binding to MspA-PBA nanopore (standards and zero-sugar drinks); set-up: species or system Mycobacterium smegmatis; conditions: N=3; for ratio (mean current percentage blockage) / std (standard deviation of the blocking level): alditol 4 mM (glycerol 8 mM) in cis
T2 construct: H6 (hexa-histidine) (C); 3-(maleimide) phenylboronic acid (MPBA) adduct on the thiol of Cys90; made in house; host or cells: E. coli BL21 (DE3) pLysS, co-expression from pETDuet-1
T2 sequence (A0QR29 other isoform, or with tags, fused parts or gaps D117N/D118N/D120N/D145R/D161R/E166K): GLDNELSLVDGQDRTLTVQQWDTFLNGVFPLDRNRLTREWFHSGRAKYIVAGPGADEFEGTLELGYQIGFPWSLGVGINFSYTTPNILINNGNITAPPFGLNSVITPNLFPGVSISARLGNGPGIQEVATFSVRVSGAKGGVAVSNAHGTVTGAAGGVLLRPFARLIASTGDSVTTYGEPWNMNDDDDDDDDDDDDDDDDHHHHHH
T2 sequence (A0QR29 other isoform, or with tags, fused parts or gaps D117C/D118N/D120N/D145R/D161R/E166K): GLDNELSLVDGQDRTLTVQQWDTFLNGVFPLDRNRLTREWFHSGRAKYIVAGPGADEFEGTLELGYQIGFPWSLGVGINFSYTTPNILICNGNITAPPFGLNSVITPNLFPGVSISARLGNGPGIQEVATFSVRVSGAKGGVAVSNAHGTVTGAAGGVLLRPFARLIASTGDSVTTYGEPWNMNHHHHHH
Experimental: FIG. 88: Definition of event parameters. (a) A representative electrophysiology trace containing nanopore events. Xylitol was treated as the model analyte. I0 is the open pore current and Ib is the residual current caused by alditol blockade. ratio is derived from (I0−Ib)/I0, which is defined as the percentage blockage. τoff represents the dwell time of an event. τon represents the inter-event interval. std is the standard deviation value of the blockage level. (b-c) The histogram plot of ratio (b) and std (c) acquired from a continually recorded trace. The histograms were Gaussian fitted and the peaks of the fitting results respectively represent the mean value of ratio and the mean std. (d-e) The histogram plots of τoff (d) and τon (e) acquired from a continually recorded trace. The histogram plots were respectively fit to a single exponential curve, according to the equation y=a*exp (−x/τ), from which the mean event dwell time (τoff) (d) and the mean inter-event interval (τon) (e) were respectively derived. If not otherwise stated, all results in this manuscript were described by event parameters defined above.
All subsequent nanopore measurements were carried out with a 1.5 M KCl buffer (1.5 M KCl, 10 mM 3-(N-Morpholino) propanesulfonic acid (MOPS), pH 7.0) and a +100 m V continually applied potential (Method 1 in Example 3). 13 types of alditols, which were derived from the reduction of the carbonyl group of C3-C6 monoaldoses were treated as model polyols (FIGS. 77b and 83). The PBA of MspA-PBA can complex with a polyol, forming a cyclic ester at the pore constriction and resulting in the corresponding nanopore event being reported. All alditols were added to the cis side of the pore and the final concentration of alditols was set at 4 mM with the exception of glycerol, which was set at 8 mM instead. […] In addition, single molecule sensing of glycerol and D-Sorbitol by MspA-PBA are as shown in FIGS. 104 and 105, respectively.
To describe the sensing events quantitatively, event parameters such as the open-pore current (I0), the current blockade (Ib), the percentage blockage (ratio), the event dwell time (τoff), the inter-event intervals (τon) and the standard deviation value of the blockage level (std) were defined as described in FIG. 88. The percentage blockage, also referred to for simplicity as ratio, is defined as (I0−Ib)/I0.
Quantitatively, the reciprocal of the mean inter-event interval (1/τon, N=3) is linearly correlated with the alditol concentration, consistent with a bimolecular model. The mean event dwell time τoff (N=3) however is independent of the alditol concentration, and this is consistent with a unimolecular dissociation mechanism (FIGS. 89e-92e, Table 18). […] The binding constant for borate cyclic ester formation for alditols increases as the number of hydroxyl groups in the alditol increases (FIG. 77c and Table 18), consistent with conclusions drawn previously from the corresponding NMR measurements.^52 Nanopore measurements were also performed with different applied voltages. […] This is expected because all alditols tested in this paper are electrically neutral and the formation of a borate ester is independent of the local electric field.
All nanopore measurements were performed as described previously.^1,2 Briefly, the measurement device has two custom chambers separated by a thick Teflon film containing a drilled (˜100 μm) aperture. Before the measurement, the aperture was first treated with 0.5% (v/v) hexadecane in pentane and set for pentane evaporation. Electrolyte buffer (500 μL) was added to the electrically grounded chamber (cis chamber) and the opposing chamber (trans chamber). All nanopore measurements in this paper were performed with a 1.5 M KCl buffer (1.5 M KCl, 10 mM MOPS, pH 7.0). Two custom-made Ag/AgCl electrodes were placed in both chambers in contact with the buffers and the patch-clamp amplifier to form a closed circuit. […]

[4] = target: T3, Octameric M2 MspA (Mycolicibacterium smegmatis, UniProt A0QR29, D117N/D118N/D120N/D145R/D161R/E166K); experiment: Alditol sensing using M2 MspA nanopore (control without PBA); type: binding, Mycobacterium smegmatis; conditions: alditol 4 mM in cis, +100 mV
T3 construct: made in house; host or cells: E. coli BL21 (DE3)
T3 sequence (A0QR29 28-211 D117N/D118N/D120N/D145R/D161R/E166K): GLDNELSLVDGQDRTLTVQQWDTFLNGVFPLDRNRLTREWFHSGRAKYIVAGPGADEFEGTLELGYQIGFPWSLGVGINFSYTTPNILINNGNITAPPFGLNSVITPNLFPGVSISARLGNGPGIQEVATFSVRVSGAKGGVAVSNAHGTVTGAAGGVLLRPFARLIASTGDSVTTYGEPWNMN
Experimental: FIG. 87: Alditol sensing using M2 MspA nanopore. Glycerol, erythritol, xylitol and sorbitol were used as the representative alditols with different number of hydroxyl groups. All measurements were carried out as described in Methods 1 in Example 3. Octameric M2 MspA was applied as the nanopore sensor. A transmembrane potential of +100 m V was continually applied. Each alditol was added to cis with a final concentration of 4 mM.
The octameric M2 MspA was used as a control in FIG. 87. It was expressed with E. coli BL21 (DE3) and purified by nickel affinity chromatography as reported previously.^1

[5] = NMP 100 μM in cis, +200 mV, three independent measurements
[6] = NMP 200 μM in cis, +200 mV, three independent measurements
[7] = NMP 300 μM in cis, +200 mV, N=3
[8] = NMP 300 μM in cis, +200 mV, three independent measurements
[9] = NMP 400 μM in cis, +200 mV, three independent measurements
[10] = NMP 500 μM in cis, +200 mV, three independent measurements
[11] = voltage series: +40 mV, AMP 500 μM in cis
[12] = voltage series: +80 mV, AMP 500 μM in cis
[13] = voltage series: +120 mV, AMP 500 μM in cis
[14] = voltage series: +160 mV, AMP 500 μM in cis
[15] = voltage series: +200 mV, AMP 500 μM in cis
[16] = voltage series: +60 mV, glycerol 12 mM, other alditols 8 mM
[17] = voltage series: +80 mV, glycerol 12 mM, other alditols 8 mM
[18] = voltage series: +100 mV, glycerol 12 mM, other alditols 8 mM
[19] = voltage series: +120 mV, glycerol 12 mM, other alditols 8 mM

Sequence of M2 MspA (A0QR29 28-211 D117N/D118N/D120N/D145R/D161R/E166K): as above

## Nc1ncnc2c1ncn2[C@@H]1O[C@H](COP(=O)(O)O)[C@@H](O)[C@H]1O [AMP, adenosine-5′-monophosphate]
[1]
  binding events with M2 MspA: No binding events were observed
[2]; [5]
  1/τoff: 14.9 ± 0.5 s⁻¹
  1/τon: 0.54 ± 0.11 s⁻¹
[2]; [6]
  1/τoff: 15.1 ± 0.2 s⁻¹
  1/τon: 0.82 ± 0.05 s⁻¹
[2]; [7]
  % Ib (percentage blockage): 10.89±0.14%
  S.D. (noise amplitude of blockage level): 3.14 ± 0.14 pA
  τoff (mean dwell time): 72.76 ± 2.07 ms
  τon (mean inter-event interval): 979.5 ± 106.1 ms
[2]; NMP 300 μM in cis, +200 mV, N=3, listed as A
  % Ib (percentage blockage): 10.89 ± 0.14%
[2]; [8]
  1/τoff: 13.8 ± 0.4 s⁻¹
  1/τon: 1.03 ± 0.11 s⁻¹
[2]; [9]
  1/τoff: 14.6 ± 1.1 s⁻¹
  1/τon: 1.19 ± 0.08 s⁻¹
[2]; [10]
  1/τoff: 14.4 ± 1.8 s⁻¹
  1/τon: 1.39 ± 0.07 s⁻¹
[2]; analyte 1 mM in cis, +200 mV
  sensing events with MspA-PBA: Successive appearance of AMP sensing events was observed
[2]; sole NMP 300 μM in cis, +200 mV, three independent measurements
  Calibration coefficient δ (NMP binding events per unit concentration per min): 0.21 ± 0.02 µM⁻¹ min⁻¹
[2]; [11]
  1/τoff: 30.5 ± 1.7 s⁻¹
  1/τon: 0.45 ± 0.03 s⁻¹
[2]; [12]
  1/τoff: 27.6 ± 1.9 s⁻¹
  1/τon: 0.71 ± 0.12 s⁻¹
[2]; [13]
  1/τoff: 24.2 ± 2.1 s⁻¹
  1/τon: 1.13 ± 0.08 s⁻¹
[2]; [14]
  1/τoff: 18.0 ± 1.4 s⁻¹
  1/τon: 1.23 ± 0.11 s⁻¹
[2]; [15]
  1/τoff: 14.5 ± 1.8 s⁻¹
  1/τon: 1.38 ± 0.08 s⁻¹

## OCC(O)CO [glycerol]
[3]; +100 mV
  ratio (mean current percentage blockage): 17.07 ± 0.15%
  std (standard deviation of the blocking level): 2.57 ± 0.07 pA
[3]; alditol 6 mM in cis, +100 mV
  1/τon: 1.3 ± 0.2 s⁻¹
  τoff: 10.5 ± 0.8 ms
[3]; alditol 8 mM in cis, +100 mV
  1/τon: 1.7 ± 0.2 s⁻¹
  τoff: 10.3 ± 0.4 ms
[3]; alditol 10 mM in cis, +100 mV
  1/τon: 2.1 ± 0.3 s⁻¹
  τoff: 10.5 ± 0.7 ms
[3]; alditol 12 mM in cis, +100 mV
  1/τon: 2.5 ± 0.3 s⁻¹
  τoff: 10.4 ± 0.5 ms
[3]; [16]
  1/τon: 2.2 ± 0.2 s⁻¹
[3]; [17]
  1/τon: 2.35 ± 0.14 s⁻¹
[3]; [18]
  1/τon: 2.4 ± 0.3 s⁻¹
[3]; [19]
  1/τon: 2.4 ± 0.2 s⁻¹
[4]
  binding events with M2 MspA: No binding events were observed

## OC[C@@H](O)[C@@H](O)CO [erythritol]
[3]; +100 mV
  ratio (mean current percentage blockage): 22.00±0.17%
  std (standard deviation of the blocking level): 3.24±0.18 pA
[3]; alditol 2 mM in cis, +100 mV
  1/τon: 0.42 ± 0.05 s⁻¹
  τoff: 42.4 ± 0.5 ms
[3]; alditol 4 mM in cis, +100 mV
  1/τon: 0.80 ± 0.05 s⁻¹
  τoff: 43.4 ± 3.2 ms
[3]; alditol 6 mM in cis, +100 mV
  1/τon: 1.16 ± 0.03 s⁻¹
  τoff: 42.3 ± 2.3 ms
[3]; alditol 8 mM in cis, +100 mV
  1/τon: 1.59 ± 0.09 s⁻¹
  τoff: 44.2 ± 1.5 ms
[3]; [16]
  1/τon: 1.62 ± 0.10 s⁻¹
[3]; [17]
  1/τon: 1.65 ± 0.11 s⁻¹
[3]; [18]
  1/τon: 1.64 ± 0.10 s⁻¹
[3]; [19]
  1/τon: 1.65 ± 0.06 s⁻¹
[4]
  binding events with M2 MspA: No binding events were observed
